From EP0004335A2, “Prostacyclin analogs, process and intermediates for their preparation and their use as medicines” (HOECHST AKTIENGESELLSCHAFT, priority 1978, dated 1979)

Test system: durch Arachidonsäure in Humanblut (in vitro) induzierten Thrombocytenaggregation
Test: Inhibition of arachidonic acid-induced platelet aggregation in human blood (in vitro)
Type: cell-based
Conditions: Konzentration, die eine Aggregation von 50% der vorhandenen Thrombocyten verhindert
From the text: Die Thrombocyten aggregationshemmende Wirkung der erfindungsgemäßen Verbindungen wurde an der durch Arachidonsäure in Humanblut (in vitro) induzierten Thrombocytenaggregation ermittelt. In der folgenden Tabelle ist die Konzentration an dem jeweiligen Prostacyclin-Derivat angegeben, die eine Aggregation von 50% der vorhandenen Thrombocyten verhindert (IC50).

SMILES | IC50
COCCC(C)(C)C(O)C=CC1C(O)CC2OC(=CCCCC(=O)O)CC21 (stereo not drawn) [Beispiel 3 a), Kaliumsalz des 16,16-Dimethyl-19-oxa-PGI2] | 1.2 µM
COC(=O)CCCC=C1CC2C(CC(O)C2C=CC(O)C(C)(C)OC2CCCCC2)O1 (stereo not drawn) [Beispiel 2 e), 16-Cyclohexyloxy-16-methyl-18,19-20-trinor-PGI -methylester] | 10 µM
CCOCC(C)(C)C(O)C=CC1C(O)CC2OC(=CCCCC(=O)O)CC21 (stereo not drawn) [Beispiel 3 b), Natriumsalz des 16,16-Dimethyl-18-oxa-PGI2] | 0.54 µM
